According to patent US9428732B2, “Compositions and methods for differentiating pluripotent stem cells into primitive blood cells and uses thereof” (Primorigen Biosciences, Inc., priority 2011, dated 2016):

System: ES and iPS cells
Experiment: Small molecule screen, CFU-GEMM assays of myeloid progenitors
Type: cell-based, human
Details: relative to DMSO control; DEAB 10 μM, rapamycin 0.1 μM; FIG. 3D
Experimental: The differentiation cultures were trypsinized at the indicated time points and single-cell suspensions were generated following trypsinization. For the Colony Forming Unit (CFU) assays using methyl cellulose cultures, 25% of the cells were plated in 2 ml of MethoCult H4435 (STEMCELL Technologies, Vancouver, BC) in six-well plates. Alternatively, sorted CD45+, CD43+, CD34+, 7AAD-cells were sorted and plated at 500 cells per 2 ml Methocult media. Cells were incubated for 14 days in a humidified incubator at 37° C. with 5% CO2 and evaluated for colonies by bright-field microscopy (Zeiss (Oberkochen, Germany, www.zeiss.com) Axiovert 200 with a Zeiss Axiocam), Cells were resuspended in PBS supplemented with 2% FBS. For the lymphoid myeloid differentiation assays, either CD45+, CD43+, CD34+, 7AAD-hematopoietic progenitors, or CD45+, CD43+, CD34+, CD38−, CD90+, CD45RA− phenotypic HSCs were plated at 20-40 cells per well onto OP9 and OP9delta feeder lines for B-cell and T-cell differentiation, respectively, as previously described (Nozad Charoudeh H, Tang Y, Cheng M, Cilio C M, Jacobsen S E, Sitnicka E., Identification of an NK/T cell-restricted progenitor in adult bone marrow contributing to bone marrow- and thymic-dependent NK cell, Blood, 2010 Jul. 15; 116(2):183-92. NK cell differentiation as well as myeloid cell differentiation was also detected in this differentiation system. […]

Q: Which “output of myeloid progenitors (CFU/BFU)” value does the source give for CCN(CC)c1ccc(C=O)cc1 [DEAB, 4-diethylaminobenzaldehyde] here?
A: The value was “increased”.
